In PubChem BioAssay AID588681 (The Scripps Research Institute Molecular Screening Center, 2011):
The source made the active and inactive calls.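 How the source made its calls: active means half-maximal IDE activation concentration EC50 of 10 µM or lower; inactive means EC50 above 10 µM.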

Molecular target: Insulin-degrading enzyme (Homo sapiens) (UniProt P14735)
Assay: activators of recombinant IDE enzyme, dose response, counter-screen for IDE activator project, biochemical, fluorescence polarization (AID 588681)
Conditions: FAbetaB cleavage

Insulin-degrading enzyme (Homo sapiens), sequence (P14735 whole entry, looked up): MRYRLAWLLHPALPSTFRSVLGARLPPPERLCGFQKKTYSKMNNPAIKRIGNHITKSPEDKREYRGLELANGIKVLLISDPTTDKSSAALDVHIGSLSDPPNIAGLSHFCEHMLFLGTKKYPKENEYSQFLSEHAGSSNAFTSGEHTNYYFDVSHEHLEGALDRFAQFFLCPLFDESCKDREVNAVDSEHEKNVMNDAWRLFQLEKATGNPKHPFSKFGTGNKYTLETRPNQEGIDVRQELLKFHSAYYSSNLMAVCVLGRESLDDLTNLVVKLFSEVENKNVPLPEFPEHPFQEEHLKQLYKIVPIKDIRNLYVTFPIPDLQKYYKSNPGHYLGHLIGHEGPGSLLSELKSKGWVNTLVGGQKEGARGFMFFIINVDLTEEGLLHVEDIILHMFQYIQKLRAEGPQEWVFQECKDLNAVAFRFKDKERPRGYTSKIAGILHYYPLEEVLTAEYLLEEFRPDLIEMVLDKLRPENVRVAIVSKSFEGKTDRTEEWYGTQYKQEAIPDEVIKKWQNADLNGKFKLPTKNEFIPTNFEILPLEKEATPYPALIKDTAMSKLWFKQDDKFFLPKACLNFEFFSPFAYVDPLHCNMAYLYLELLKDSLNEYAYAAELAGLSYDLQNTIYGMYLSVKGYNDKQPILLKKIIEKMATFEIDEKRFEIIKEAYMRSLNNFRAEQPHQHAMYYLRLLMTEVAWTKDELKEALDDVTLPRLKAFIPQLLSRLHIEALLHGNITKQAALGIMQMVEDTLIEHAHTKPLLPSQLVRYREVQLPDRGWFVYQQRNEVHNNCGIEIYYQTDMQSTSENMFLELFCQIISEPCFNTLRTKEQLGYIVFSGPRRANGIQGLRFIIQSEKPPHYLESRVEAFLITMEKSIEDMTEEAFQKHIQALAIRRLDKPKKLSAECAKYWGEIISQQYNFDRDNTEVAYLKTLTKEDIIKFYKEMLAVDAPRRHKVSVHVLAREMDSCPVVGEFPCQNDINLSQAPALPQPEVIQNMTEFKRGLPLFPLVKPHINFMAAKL

SMILES | EC50
C#CCOCCOCCOCCNc1nc(N2CCN(C(=O)CCCCCCCCCCNC(=O)[C@H]([C@@H](C)CC)n3cc(CCCCCN)nn3)CC2)nc(N2CCN(C(=O)CCCCCCCCCCNC(=O)[C@H]([C@@H](C)CC)n3cc(CCCCN=C(N)N)nn3)CC2)n1 | 2.32 µM
C#CCOCCOCCOCCNc1nc(N2CCN(C(=O)CCCCCCCCCCNC(=O)Cn3cc(CCCCCN)nn3)CC2)nc(N2CCN(C(=O)CCCCCCCCCCNC(=O)[C@H](CO)n3cc(CCCSC)nn3)CC2)n1 | inactive
C#CCOCCOCCOCCNc1nc(N2CCN(C(=O)CCCCCCCCCCNC(=O)[C@@H](CCSC)n3cc(CCO)nn3)CC2)nc(N2CCN(C(=O)CCCCCCCCCCNC(=O)[C@H](CO)n3cc(CCCCCN)nn3)CC2)n1 | inactive
C#CCOCCOCCOCCNc1nc(N2CCN(C(=O)CCCCCCCCCCNC(=O)Cn3cc(CCCCCN)nn3)CC2)nc(N2CCN(C(=O)CCCCCCCCCCNC(=O)Cn3cc(C[C@@H](C)O)nn3)CC2)n1 | > 54.7 µM (inactive)
C#CCOCCOCCOCCNc1nc(N2CCN(C(=O)CCCCCCCCCCNC(=O)[C@H](CO)n3cc(CCCSC)nn3)CC2)nc(N2CCN(C(=O)CCCCCCCCCCNC(=O)[C@H](CCCCN)n3cc(CCO)nn3)CC2)n1 | > 54.7 µM (inactive)
C#CCOCCOCCOCCNc1nc(N2CCN(C(=O)CCCCCCCCCCNC(=O)Cn3cc(C[C@@H](C)O)nn3)CC2)nc(N2CCN(C(=O)CCCCCCCCCCNC(=O)[C@H](CCCN=C(N)N)n3cc(C[C@@H](C)CC)nn3)CC2)n1 | 6.55 µM
C#CCOCCOCCOCCNc1nc(N2CCN(C(=O)CCCCCCCCCCNC(=O)[C@H](CCCCN)n3cc(CCO)nn3)CC2)nc(N2CCN(C(=O)CCCCCCCCCCNC(=O)[C@H](CCCN=C(N)N)n3cc(C[C@@H](C)CC)nn3)CC2)n1 | 7.08 µM
C#CCOCCOCCOCCNc1nc(N2CCN(C(=O)CCCCCCCCCCNC(=O)Cn3cc(CCCCCN)nn3)CC2)nc(N2CCN(C(=O)CCCCCCCCCCNC(=O)[C@H]([C@@H](C)CC)n3cc(CCCCCN)nn3)CC2)n1 | 8.55 µM
